In this experiment the target is T1, FmlHLD (Escherichia coli, UniProt P77588).
T1 construct: 6xHis (C); made in house; host or cells: E. coli C600, periplasm, pTRC99a
In words: biochemical. It counts as binding, E. coli. The settings on record: for PI100 (percent inhibition): galactoside at 100 μM, 100 µM; for inhibitory potency against FmlH, in words: ELISA-based competition assay. The procedure:
Thereafter, wells were incubated with 200 μl blocking buffer (PBS+1% BSA) for 2 hours at 23° C., followed by incubation with 100 μl biotinylated FmlHLD diluted in blocking buffer to 20 μg/ml in the presence or absence of the tested compounds for 1 hr at 23° C. After washing 3× with PBS+0.05% TWEEN-20, 100 μl Streptavidin-HRP conjugate (BD Biosciences; 1:2000 dilution in blocking buffer) was added to each well for 1 hr at 23° C. After a final round of washing, plates were developed with 100 μl Tetramethylbenzidine (TMB, BD Biosciences) substrate, quenched within 1-2 min with 50 μl […], and absorbance measured at 450 nm.
Select top hit compounds and few low-scoring analogs from the virtual screening, as well as synthetic galactosides, were tested in the ELISA-based competition assay for their ability to inhibit binding of FmlHLD to ds-BSM. The ELISA assay was performed using the protocol described in Example 18. […] All compounds were tested at 100 μM; a subset was tested at 10 μM; and the strongest subset was additionally tested at 1 μM. […] Percent inhibition (PI) values are reported as the mean with standard error of the mean for galactosides tested at 100 μM (PI100), 10 μM (PI10), and 1 μM (PI1) in the ELISA-based competition assay. […] The “thio” designation indicates a sulfur linkage between the sugar and the aglycone group, the “phospho” designation indicates a phosphate group attached the C6-hydroxyl group on the sugar, and the “uro” designation indicates galacturonide as the sugar.
The ELISA assay was performed using the protocol described in Example 18. All compounds were tested at 1 μM and a subset was additionally tested at 100 nM. Average percent inhibition (PI) values are reported for compounds tested at 1 μM (PI1) and 100 nM (PI0.1).
Briefly, 1 μg bovine submaxillary mucin (Sigma) in 100 uL PBS were incubated with Immulon 4HBX 96-well plates overnight prior to treatment with 1 mU Arthrobacter ureafaciens sialidase for 1 hour at 37° C. to remove terminal sialic acid sugars. Wells were then blocked with 200 μL PBS+1% BSA for 2 hours at room temperature. Biotinylated FmlH^LD was diluted to 20 μg/mL in blocking buffer and incubated in the presence or absence of compounds serially diluted 2× down eight rows for 1 hour at room temperature. Wells were washed three times with PBS 0.05% TWEEN-20 then incubated with 100 μL of streptavidin-HRP conjugate (BD Biosciences; 1:2,000 dilution in blocking buffer) for one hour. After three additional PBS+0.05% TWEEN washes, plates were developed with 100 μL of tetramethylbenzidine (BD Biosciences) substrate and quenched with 50 μL of 1 M H2SO4. Total bound portion concentration was measured by the absorbance at 450 nm. IC50s were determined using the Graphpad Prism software.
The compounds synthesized herein were tested in the ELISA-based competition assay for their ability to inhibit binding of FmlHLD to ds-BSM. The ELISA assay was performed using the protocol described in Example 18. Compounds were tested at […], 1 μM, and 100 nM. as indicated on the table. […] ND means the corresponding value was not determined for this summary (but may be available elsewhere in the Examples).
For orientation: ELISA stands for enzyme-linked immunosorbent assay.

Where [1] appears, read: read-out: PI100 (percent inhibition), galactoside at 100 μM, mean with standard error of the mean.
The mark [2] stands for this setting: IC50 (μM), Table 5, Gal and GalNAc inhibition of FmlH.
Where [3] appears, read: read-out: % Inhibition at [μM] [100], compound at 100 μM, inhibition of FmlHLD binding to ds-BSM.
[4] abbreviates: mean with standard error of the mean.
[5] abbreviates: read-out: PI1 (percent inhibition), galactoside at 1 μM, mean with standard error of the mean.
Setting [6] is: read-out: PI10 (percent inhibition), galactoside at 10 μM, mean with standard error of the mean.
The mark [7] stands for this setting: read-out: % Inhibition at [μM] [1], compound at 1 μM, inhibition of FmlHLD binding to ds-BSM.
[8] abbreviates: read-out: % Inhibition at [μM] [10], compound at 10 μM, inhibition of FmlHLD binding to ds-BSM.
Where [9] appears, read: read-out: PI(1) (average percent inhibition), compound at 1 μM, Table 4.
[10] abbreviates: IC50, inhibition of FmlHLD binding to ds-BSM.

In general, inhibition refers to the drop in the measured response relative to a control, in per cent. Usually IC50 stands for the concentration that inhibits the measured activity by half. The low end stands for greater potency, the high end for weaker potency. What is called % Inhibition is the drop in the measured response relative to a control, in per cent. A low value points to little suppression.

Where two headings read alike, the source gives them in different places.

T1 sequence (P77588 25-182): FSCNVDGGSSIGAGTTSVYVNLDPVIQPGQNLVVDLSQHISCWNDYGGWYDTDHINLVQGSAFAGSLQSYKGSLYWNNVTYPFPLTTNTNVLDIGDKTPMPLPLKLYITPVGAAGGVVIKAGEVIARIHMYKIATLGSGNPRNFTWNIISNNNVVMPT

With `CC(C)S[C@@H]1O[C@H](CO)[C@H](O)[C@H](O)[C@H]1O` [36β-thio (IPTG), reference compound], the inhibition at 100 µM under setting [1] came out at 23.7 ± 5.3%.

With `CC(=O)N[C@@H]1[C@H](Oc2ccccc2-c2cccc(NC(=O)C(F)(F)F)c2)OC(CO)[C@H](O)[C@@H]1O` (stereo partly drawn) [Compound 3044, N-(2′-(((2S,3S,4R,5R)-3-acetamido-4,5-dihydroxy-6-(hydroxymethyl)tetrahydro-2H-pyran-2-yl)oxy)-[1,1′-biphenyl]-3-yl)-2,2,2-trifluoroacetamide], inhibition under setting [2] was half-maximal at 0.37 µM (IC50). With `OC[C@H]1O[C@@H](Oc2c[nH]c3cc(Cl)ccc23)[C@H](O)[C@@H](O)[C@H]1O` [Salmon Gal, reference compound], under setting [3], the inhibition at 100 µM is 41.2%.

For `OC[C@H]1O[C@H](Oc2cccc(-c3ccccc3)c2)[C@H](O)[C@@H](O)[C@H]1O` [Compound 114af1], the inhibition at 100 µM under setting [3] turned out to be 45.6%.

Turning to `Cc1ccc(O[C@@H]2O[C@H](CO)[C@H](O)[C@H](O)[C@H]2O)cc1` [Compound 8β, 4-methylphenyl β-D-galactopyranoside], the “PI100 (percent inhibition)” value under setting [4] is 85.8 ± 0.7%. Besides, the inhibition at 1 µM under setting [5] is 4.6 ± 7.9%. Besides, under setting [6], the inhibition at 10 µM worked out at 16.5 ± 3.3%. For the same compound, under setting [1], the inhibition at 100 µM turned out to be 86%.

`CC(=O)N[C@@H]1[C@H](Oc2ccccc2-c2cc(C(=O)O)cc([N+](=O)[O-])c2)OC(CO)[C@H](O)[C@@H]1O` (stereo partly drawn) [Compound 3029, 2′-(((2S,3S,4R,5R)-3-acetamido-4,5-dihydroxy-6-(hydroxymethyl)tetrahydro-2H-pyran-2-yl)oxy)-5-nitro-[1,1′-biphenyl]-3-carboxylic acid] yielded an IC50 under setting [2] of 2.2 µM.

As to `Cc1ccccc1O[C@@H]1O[C@H](CO)[C@H](O)[C@H](O)[C@H]1O` [Compound 2β, 2-Methylphenyl α/β-D-Galactopyranoside], under setting [4], the “PI100 (percent inhibition)” value came to 87.3 ± 3.7%. For the same compound, the inhibition at 1 µM under setting [5] amounted to 1.8 ± 5.7%. Moreover, the inhibition at 10 µM under setting [6] is 28.2 ± 1.8%. Further, the inhibition at 100 µM under setting [1] came to 87%.

For `COC(=O)c1cccc(-c2ccccc2O[C@@H]2O[C@H](CO)[C@H](O)[C@H](O)[C@H]2O)c1` [Compound 116f], the inhibition at 1 µM under setting [7] was 3.7%. Besides, the inhibition at 10 µM under setting [8] is 22.4%. Also, under setting [3], the inhibition at 100 µM amounted to 86.6%. `COc1cc(OC)cc(O[C@@H]2O[C@H](CO)[C@H](O)[C@H](O)[C@H]2O)c1` [Compound 7β, 3,5-dimethoxyphenyl β-D-galactopyranoside]: the “PI100 (percent inhibition)” value under setting [4] is reported as 76.4 ± 2.4%. Under setting [6], the inhibition at 10 µM is 11.7 ± 2.7%. Besides, the inhibition at 100 µM under setting [1] was 76%. As to `OC[C@H]1O[C@@H](Oc2cccc(-c3ccccc3)c2)[C@H](O)[C@@H](O)[C@H]1O` [Compound 114af2], the inhibition at 10 µM under setting [8] was 7.8%. In addition, under setting [3], the inhibition at 100 µM was 56.9%.

`CNC(=O)c1cccc(-c2ccccc2O[C@@H]2O[C@H](CO)[C@H](O)[C@H](O)[C@H]2O)c1` [AM2042, N-methyl-2′-(((2S,3R,4S,5R,6R)-3,4,5-trihydroxy-6-(hydroxymethyl)tetrahydro-2H-pyran-2-yl)oxy)-[1,1′-biphenyl]-3-carboxamide]: the inhibition at 0.1 µM runs as follows: (read-out: % Inhibition at [μM] [0.1], compound at 0.1 μM (100 nM), inhibition of FmlHLD binding to ds-BSM) 0%; (read-out: PI (0.1) (average percent inhibition), compound at 100 nM, Table 4) 0%. The inhibition at 1 µM is, setting by setting: under setting [7], 16.6%; under setting [9], 16.6%. `O=[N+]([O-])c1ccccc1O[C@@H]1O[C@H](COP(=O)(O)O)[C@H](O)[C@H](O)[C@H]1O` [ONPG-6P, reference compound]: the “% Inhibition at [μM] [100]” value (compound at 100 μM, inhibition of FmlHLD binding to ds-BSM) is reported as 1.31%. `CC(=O)N[C@H]1[C@H](Oc2ccccc2-c2cccc(NS(=O)(=O)C(F)(F)F)c2)O[C@H](CO)[C@H](O)[C@@H]1O` [Compound 3049, N-((2S,3R,4R,5R,6R)-4,5-dihydroxy-6-(hydroxymethyl)-2-((3′-((trifluoromethyl)sulfonamido)-[1,1′-biphenyl]-2-yl)oxy)tetrahydro-2H-pyran-3-yl) acetamide] displayed an IC50 under setting [2] of 1.17 µM. This lies in the single-digit micromolar range. Turning to `CC(=O)N[C@H]1[C@H](Oc2cccc(C)c2-c2cccc(NS(C)(=O)=O)c2)O[C@H](CO)[C@H](O)[C@@H]1O` [AM2110], the IC50 under setting [10] was 0.122 µM.

`COc1cccc(O[C@@H]2OC(CO)[C@H](O)[C@H](O)[C@@H]2NC(C)=O)c1-c1cccc(NS(C)(=O)=O)c1` (stereo partly drawn) [Compound 3083, N-((2S,3S,4R,5R)-4,5-dihydroxy-6-(hydroxymethyl)-2-((6-methoxy-3′-(methylsulfonamido)-[1,1′-biphenyl]-2-yl)oxy)tetrahydro-2H-pyran-3-yl)acetamide] showed a half-maximal inhibitory concentration (IC50) (IC50 (μM), Table 6, sulfonamides 3078-3090) of 0.15 µM. This lies in the sub-micromolar range. For `OC[C@H]1O[C@@H](Oc2ccccc2)[C@H](O)[C@@H](O)[C@H]1O` [Phenyl Gal, reference compound], the inhibition at 10 µM under setting [8] is 15.5%. Further, under setting [3], the inhibition at 100 µM came out at 76.9%. For the compound `CC(=O)N[C@H]1[C@H](Oc2cccc(C(F)(F)F)c2-c2cccc(NS(C)(=O)=O)c2)O[C@H](CO)[C@H](O)[C@@H]1O` [AM2134], the IC50 under setting [10] worked out at 0.085 µM. On the same count and under the same terms, as for `Cc1cccc(O[C@@H]2O[C@H](CO)[C@H](O)[C@H](O)[C@H]2NS(C)(=O)=O)c1-c1cccc(NS(C)(=O)=O)c1` [AM2186], the figure is 3.5 µM. As for `CC(=O)N[C@H]1[C@H](Oc2ccccc2-c2cccc(C(=O)N(C)C)c2)O[C@H](CO)[C@H](O)[C@@H]1O` [AM2032, 2′-(((2S,3R,4R,5R,6R)-3-acetamido-4,5-dihydroxy-6-(hydroxymethyl)tetrahydro-2H-pyran-2-yl)oxy)-N,N-dimethyl-[1,1′-biphenyl]-3-carboxamide], the “inhibitory potency against FmlH, in words” value is “equal or slightly reduced potency”. This compound came in with an IC50 under setting [2] of 3.13 µM. Moreover, the inhibition at 1 µM under setting [7] was -3.61%. Besides, under setting [9], the inhibition at 1 µM was -3.61%.

For the compound `CC(=O)N[C@H]1[C@H](Oc2cccc(C)c2-c2cccc(NS(=O)(=O)C3CC3)c2)O[C@H](CO)[C@H](O)[C@@H]1O` [AM2151], the IC50 under setting [10] worked out at 0.12 µM. Regarding `OC[C@H]1O[C@H](Oc2ccccc2-c2ccccc2)[C@H](O)[C@@H](O)[C@H]1O` [Compound 113f1], the inhibition at 100 µM under setting [3] is 19.2%. Take `COc1cccc(-c2ccccc2O[C@@H]2O[C@H](CO)[C@H](O)[C@H](O)[C@H]2NC(C)=O)c1` [AM2029, N-((2S,3R,4R,5R,6R)-4,5-dihydroxy-6-(hydroxymethyl)-2-((3′-methoxy-[1,1′-biphenyl]-2-yl)oxy)tetrahydro-2H-pyran-3-yl)acetamide]: the “inhibitory potency against FmlH, in words” value is reported as “equal or slightly reduced potency”. Further, the half-maximal inhibitory concentration (IC50) under setting [2] came out at 2 µM. Moreover, the inhibition at 1 µM under setting [7] amounted to 15.5%. Also, the inhibition at 1 µM under setting [9] was 15.5%. For `Nc1ccc(O[C@@H]2O[C@H](CO)[C@H](O)[C@H](O)[C@H]2O)cc1` [Compound 10β], the “PI100 (percent inhibition)” value under setting [4] was 65.1 ± 1.4%. Further, the inhibition at 10 µM under setting [6] was 9.8 ± 3.9%. Also, the inhibition at 100 µM under setting [1] turned out to be 65%. With `CC(=O)N[C@H]1[C@H](Oc2cccc(C(=O)OCc3ccccc3)c2-c2cccc(NS(C)(=O)=O)c2)O[C@H](CO)[C@H](O)[C@@H]1O` [AM2141], the 50% inhibitory concentration (IC50) under setting [10] is 0.18 µM. On to `O=c1ccc2nc3ccc(O[C@@H]4O[C@H](CO)[C@H](O)[C@H](O)[C@H]4O)cc3oc-2c1` [Resorufin Gal, reference compound], for which, under setting [8], the inhibition at 10 µM worked out at 24%. The inhibition at 100 µM under setting [3] worked out at 80.4%.

For the origin of these results see US11773127B2, “Compounds and methods for treating bacterial infections” (Washington University, priority 2017, dated 2023).
